Our source for the activity change, negative = cytotoxicity values is PubChem BioAssay AID504726 (Broad Institute, 2011).

The source made the active and inactive calls.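 The calls were made as follows: active = fitted half-maximal concentration for a cytotoxic signal drop no higher than ten times the top valid dose tested; inconclusive = flat curve between -70 and -30 percent, or an unreliable fit; inactive = flat within 30 percent, signal rise, or potency beyond limit.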

This experiment in a line: HeLa cell cytotoxicity, dose response, cytotoxicity control, 24 h, cherry-picked samples (AID 504726).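 Also: 0% = DMSO neutral controls and -100% = mitoxantrone positive controls.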 To be noted: HeLa viability, CellTiter-Glo ATP luminescence, 24 h; at 35 µM (top of the series). (In general: Cellular ATP, detected with luciferase, serves as a proxy for viable cell number.)
Turning to `O=C(O)COc1ccc2c(c1)O/C(=C\c1ccco1)C2=O`, the activity change, negative = cytotoxicity was -1.96% (inactive). The same measure for `Cc1ccc(NC(=S)N/C(=N/S(=O)(=O)c2ccccc2)c2ccccc2)cc1`: 6.71% (inactive); for `CC1=NN(c2cccc(C(=O)O)c2)C(=O)/C1=C\C=C\c1ccco1`: -5.55% (inactive). The figure for `C=CCn1c(C)cc(-c2csc(NC(=O)CCc3nc4ccccc4c(=O)[nH]3)n2)c1C` is -6.5% (inactive). The same measure for `COc1cc2c(cc1OC)-c1cc3ccc4c(c3c[n+]1CC2)OCO4`: -12.1% (inactive). For `COCCN(CCOC)Cc1c(O)ccc2c1O/C(=C\c1ccco1)C2=O`, the activity change, negative = cytotoxicity is -13.7% (inactive). The same measure for `Cc1nn(CC(=O)c2ccc(Br)s2)c(C)c1[N+](=O)[O-]`: -2.98% (inactive); for `COc1ccc(/C=N/NC(=O)c2ccc3nc[nH]c3c2)c(OC)c1`: 3.07% (inactive). The figure for `O=C(Nc1ccccc1F)c1coc(=O)c(Br)c1` is -20.2% (inactive); for `COc1ccc(NS(=O)(=O)c2ccc(C)c(C(=O)N(C)Cc3ccc(OC)cc3OC)c2)cc1` it is -7.58% (inactive). The figure for `Nc1cccc2c(O)cc(S(=O)(=O)O)cc12` is -1.83% (inactive); for `CCN(CC)c1ccc2cc(S(=O)(=O)c3ccc(C)cc3)c(=O)oc2c1` it is -3.69% (inactive); for `CSC(=NS(=O)(=O)c1ccc(N)cc1)NS(=O)(=O)c1cccs1` it is -2.85% (inactive). Regarding `O=c1[nH]nc(CSCc2ccccc2Cl)[nH]1`, the activity change, negative = cytotoxicity was -3.66% (inactive).

Turning to `Brc1c(CSc2nncc3ccccc23)nc2ccccn12`, the activity change, negative = cytotoxicity was -1.12% (inactive).

For `O=C1CCCC2=C1C(c1ccc(O)c(O)c1)Nc1ccc3ncccc3c12` (stereo not drawn), the activity change, negative = cytotoxicity is -1.08% (inactive). As for `Cc1cc(Cl)ccc1N1C(=O)CC(NNC(=O)c2cccnc2)C1=O` (stereo not drawn), the activity change, negative = cytotoxicity was 5.15% (inactive). The figure for `COc1ccc(C(=O)OCC(=O)NC2CC2)cc1S(=O)(=O)Nc1ccc(C)cc1` is 3.27% (inactive). The same measure for `COc1ccc(NC(=O)Cc2nnc(SCC(=O)Nc3nccs3)n2C)cc1`: 5.46% (inactive); for `COc1ccc(OCC(=O)N2CCN(c3cccc(C(F)(F)F)c3)CC2)cc1`: -8.78% (inactive); for `CCOC(=O)C1=C(COC(=O)c2ccc([N+](=O)[O-])s2)NC(=O)NC1C` (stereo not drawn): -1% (inactive).

With `O=C(NC12CC3CC(CC(C3)C1)C2)N1CCN(c2ncccn2)CC1`, the activity change, negative = cytotoxicity is 12.9% (inactive). The figure for `Cn1cc(/C=C2\C(=O)NC(=O)N(c3ccccc3)C2=O)c2ccccc21` is -26.5% (inactive); for `O=C(O)CC1(CC(=O)NCc2ccncc2)CCCCC1` it is -9.28% (inactive). The same measure for `CCCc1nc(NCc2ccccn2)c2nnn(Cc3ccccc3F)c2n1`: -9.25% (inactive). The figure for `CCC(Sc1ncccc1C(=O)O)C(=O)N1CCCC1` (stereo not drawn) is 3.53% (inactive). In the case of `CCN(CC(=O)NCc1cccs1)C(=O)c1ccc(S(=O)(=O)Nc2ccccc2C)cc1`, the activity change, negative = cytotoxicity is 2.2% (inactive). The figure for `Cc1ccc(NC(=O)CN2C(=O)N/C(=C/c3cccn3-c3ccc(C(=O)O)cc3)C2=O)cc1` is -4.45% (inactive).

As for `Nc1c(/C=C2/C=CC(=O)C(O)=C2)c(=O)nc2sc(CC(=O)N3CCCC3)nn12`, the activity change, negative = cytotoxicity was -5.49% (inactive). The figure for `Cc1ccc(CSc2ncnc3onc(C)c23)cc1` is -13.2% (inactive); for `Nc1nc(C(F)(F)F)cc(=O)[nH]1` it is -5.29% (inactive); for `Oc1ccc2nnc3c(Br)cnn3c2c1` it is -12.1% (inactive). Turning to `Nc1ccc2nc3c(=O)n(C4CCCCC4)c(=O)[nH]c3nc2c1`, the activity change, negative = cytotoxicity was -0.337% (inactive). Consider `Cc1c(C)n(CCC(=O)O)c2ccccc12`, for which the activity change, negative = cytotoxicity was -6.21% (inactive).

As for `Cc1ccsc1/C=N/NC(=O)Cc1ccc(Cl)cc1`, the activity change, negative = cytotoxicity is 1.7% (inactive). The same measure for `O=S(=O)(O)c1cc(Cl)cc(N=Nc2ccc(O)cc2O)c1O`: -12.1% (inactive).

For the molecule `CCNC(=O)COC(=O)c1cccc(Br)c1`, the activity change, negative = cytotoxicity was -0.098% (inactive). The same measure for `CN1C(=O)NC(c2ccccc2[N+](=O)[O-])C2=C1CCCC2=O` (stereo not drawn): -9.55% (inactive); for `CC(Sc1nc(-c2ccco2)nc2c1c(=O)n(C)c(=O)n2C)C(=O)O` (stereo not drawn): -11% (inactive); for `COc1ccc(NS(=O)(=O)c2ccc3c(c2)[C@H]2C=CC[C@H]2[C@@H](c2ccc(C(=O)O)cc2)N3)cc1`: -3.11% (inactive). `Cc1sc2nnn(CC(=O)N3CCN(C(=O)c4ccco4)CC3)c(=O)c2c1C`: the activity change, negative = cytotoxicity is -4.76% (inactive).

Turning to `C/C(=N/NC(=O)c1ccncc1)c1cc2ccc(O)cc2oc1=O`, the activity change, negative = cytotoxicity was 3.38% (inactive). The figure for `CC(C)(CS(=O)(=O)[O-])NC(=O)CC[N+](C)(C)CCO` is 2.35% (inactive).

In the case of `Cc1cc(OCC(=O)OC(C)(C)C)c2c3c(c(=O)oc2c1)CCC3`, the activity change, negative = cytotoxicity is 0.477% (inactive). The same measure for `CSc1ccc(/C=N/Nc2cccc(C(=O)O)c2)cc1`: -13% (inactive); for `CCCC1(C2CCCC2)NC(=O)NC1=O` (stereo not drawn): 0.78% (inactive). The figure for `COc1ccc(CNC(=O)C2CCC(CNC(=O)[C@@H]3Cc4ccccc4CN3)CC2)cc1` (stereo partly drawn) is -2.6% (inactive); for `CC(C)c1ccc(CNc2ccc([N+](=O)[O-])cn2)cc1` it is -10.7% (inactive); for `N=C1/C(=C/c2ccc(-c3cccc(C(=O)O)c3)o2)C(=O)N=C2SC(CC(=O)N3CCOCC3)=NN12` it is -4.55% (inactive). The same measure for `CC(C)=C1C2C=CC1C(C(=O)Nc1cc(C)ccc1C)C2C(=O)O` (stereo not drawn): -4.56% (inactive).

In the case of `CCn1c(=O)c(C(=O)NCCN2CCCCC2)c(O)c2ccccc21`, the activity change, negative = cytotoxicity was 1.6% (inactive).

Consider `CCCn1c(SCC(=O)NCc2cccs2)nc2c1c(=O)n(C)c(=O)n2C`, for which the activity change, negative = cytotoxicity is 7.8% (inactive). In the case of `CC(=O)Oc1ccc2c(c1)Oc1cc(OC(C)=O)ccc1C21OC(=O)c2ccccc21`, the activity change, negative = cytotoxicity was -1.71% (inactive). The same measure for `NNC(=O)C1C(O)CCC2CN3CCc4c([nH]c5ccccc45)C3CC21` (stereo not drawn): -12.3% (inactive); for `Cc1c(C)n(Cc2ccccc2)c2ncnc(Cl)c12`: -17.6% (inactive). The figure for `COc1cccc(/C=N/NC(=O)C(=O)NCc2cccnc2)c1O` is -7.2% (inactive). The same measure for `CCc1noc(C)c1C(=O)N1CCCC(N2CCN(c3ccc(F)cc3)CC2)C1` (stereo not drawn): -1.12% (inactive); for `O=S(=O)(NCc1cccnc1)c1ccc(Cl)s1`: 4.67% (inactive); for `NNC(=S)Nc1ccc(S(=O)(=O)N2CCOCC2)cc1`: 0.037% (inactive).

Consider `C=CCN1C(=O)/C(=c2\sc3nc(=O)c(Cc4ccccc4Cl)nn3c2=O)c2ccccc21`, for which the activity change, negative = cytotoxicity is -9.87% (inactive). The figure for `c1ccc2[nH]c3cc4ncnc4cc3nc2c1` is 5.9% (inactive); for `Cc1ccccc1NC(=O)CN1C(=O)N/C(=C\c2cccn2-c2cccc(C(=O)O)c2)C1=O` it is -8.21% (inactive); for `COc1ccccc1CNC(=O)C(=O)NCC1CCCN1S(=O)(=O)c1cccs1` (stereo not drawn) it is -4.86% (inactive). The same measure for `COc1ccc(Br)cc1CNC(=O)CCCc1cn(C)c2ccccc12`: -12.1% (inactive). The figure for `COc1ccc(S(=O)(=O)N2CCC(C(=O)N3CCCCC3)CC2)cc1` is -17.6% (inactive); for `O=C1c2ccccc2C(Nc2ccc3c(c2)OCCO3)N1Cc1ccc2c(c1)OCO2` (stereo not drawn) it is -13.3% (inactive); for `COc1ccc(OC2CCN(S(=O)(=O)c3ccc(OC)cc3)CC2)cc1` it is -12.1% (inactive).

As for `Nc1cccc(N2C(=O)c3cccc4c(N)ccc(c34)C2=O)c1`, the activity change, negative = cytotoxicity was 6.74% (inactive). The same measure for `CN(c1ccc(OCC(=O)OCC(=O)c2c(N)n(C)c(=O)n(C)c2=O)cc1)S(=O)(=O)c1ccc2ccccc2c1`: 3.95% (inactive); for `COC(=O)C1CCN(C(=O)COC(=O)Cc2c[nH]c3ccccc23)CC1`: -20.6% (inactive); for `Nc1ccc2ccc3cccc[n+]3c2c1`: -15.1% (inactive).

With `O=C1c2cccc3c(O)ccc(c23)C(=O)N1c1ccc(Cl)cc1`, the activity change, negative = cytotoxicity is -8.83% (inactive). The same measure for `CCN(CC(=O)Nc1c(F)cccc1F)C(=O)CCCc1cccs1`: -23.5% (inactive); for `COc1[nH]c(/N=C/c2ccccc2)c(C#N)c1C#N`: -1.43% (inactive); for `COC(=O)c1sc(C(F)(F)F)c(-c2ccccc2)c1S(=O)(=O)N1CCOCC1`: -14.2% (inactive). The figure for `CCOC(=O)c1c(/N=C/c2c(O)n(-c3cccc(C)c3)c(=O)[nH]c2=O)sc2c1CCCC2` is -22.9% (inactive). As to `Cn1c2ccccc2c2cnn(CC(=O)Nc3cccc(F)c3)c(=O)c21`, the activity change, negative = cytotoxicity is -9.52% (inactive). The same measure for `CC(OC(=O)c1cn(C)c2ccccc12)C(=O)N1CCCC1` (stereo not drawn): -9.43% (inactive).
